The target in assay [1] is T1, WEE1 (Homo sapiens, UniProt P30291+Q96SW2).
T1 construct: C-terminal ePL-tagged (DiscoverX, Fremont, CA) full-length WEE1 expression construct; expressed in transfected cells; host or cells: LentiX-HEK293T (Invitrogen), lentiviral transduction; co-expressing GSPT1-GN (G576N, lacking the first 158 amino acids)
The assay is described as follows: WEE1-ePL degradation assay (LentiX-WEE1-ePL-GSPT1-ND cells, InCELL Hunter luminescence, 4 h). As to conditions: 293T-LentiX WEE1-ePL cells; for 293T-LentiX WEE1-ePL Degradation 4 hr (Ymin): lower limit of the fit (0 = luciferase inhibitor, Ymax = DMSO control); for DC50: read-out: 293T-LentiX WEE1-ePL Degradation 4 hr (EC50). Format: cell-based. Put shortly:
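Degradation EC50 was fitted by a four-parameter logistic model, with the upper limit taken from DMSO wells. Luminescence was read with InCELL Hunter reagent after 30 min at room temperature, following a 4 h, 37° C exposure of 2500 cells/well. Cells were LentiX-HEK293T carrying ePL-tagged full-length WEE1, dosed in 10 points (3-fold) from 1 or 10 uM.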

Assay [2] concerns MKN45 cells. The assay is described as follows: MKN45 cell proliferation assay (Cell-Titer-Glo, 120 h). Format: cell-based. As to conditions: for pEC50: Homo sapiens, MKN-45, 120 h, Cell-Titer-Glo, growth inhibition, read-out: MKN45 Cell Prolif. 120 hr (EC50); for MKN45 Cell Prolif. 120 hr (Ymin-Obs): minimal percent of DMSO control observed in the concentrations tested. The essentials:
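Growth inhibition was read as blank-corrected Cell-Titer-Glo luminescence expressed as percent DMSO control after 120 h at 37 C, 400 cells/well. Compounds tested in triplicate as 10-point half-log series from 1 or 10 uM, 0.1% DMSO; four-parameter fit gave EC50, and lowest observed percent control was reported as Ymin-obs.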

pEC50: −log10 of the molar value. A value given as a limit tells only on which side of the number the result lay.

On to `Cc1nc(CN2CC[C@H](Oc3ccc4c(c3)CN(C3CCC(=O)NC3=O)C4=O)C2)cc2ccccc12` (stereo partly drawn) [3-(5-{[(3S)-1-[(1-methylisoquinolin-3-yl)methyl]pyrrolidin-3-yl]oxy}-1-oxo-2,3-dihydro-1H-isoindol-2-yl)piperidine-2,6-dione], for which, in assay [1], the “293T-LentiX WEE1-ePL Degradation 4 hr (Ymin)” value was 47.56 and the DC50 came out at 31 nM. Moreover, in assay [2], the pEC50 is 5.30 and the “MKN45 Cell Prolif. 120 hr (Ymin-Obs)” value is on record as 50.77.
In the case of `O=C1CCC(N2Cc3cc(O[C@H]4CCN(Cc5cc6cnccc6cn5)C4)ccc3C2=O)C(=O)N1` (stereo partly drawn) [3-(5-{[(3S)-1-[(2,6-naphthyridin-3-yl)methyl]pyrrolidin-3-yl]oxy}-1-oxo-2,3-dihydro-1H-isoindol-2-yl)piperidine-2,6-dione], in assay [1], the “293T-LentiX WEE1-ePL Degradation 4 hr (Ymin)” value is listed as 34.11 and the DC50 amounted to 39.9 nM. For the same compound, in assay [2], the negative logarithm of the EC50 (pEC50) is 6.26 and the “MKN45 Cell Prolif. 120 hr (Ymin-Obs)” value worked out at 24.28.
Regarding `O=C1CCC(N2Cc3cc(O[C@H]4CCN(Cc5cc6ccncc6cn5)C4)ccc3C2=O)C(=O)N1` (stereo partly drawn) [3-(5-{[(3S)-1-[(2,7-naphthyridin-3-yl)methyl]pyrrolidin-3-yl]oxy}-1-oxo-2,3-dihydro-1H-isoindol-2-yl)piperidine-2,6-dione], in assay [1], the “293T-LentiX WEE1-ePL Degradation 4 hr (Ymin)” value is given as 28.095 and the DC50 was 19.3 nM. Further, in assay [2], the pEC50 is 7.01 and the “MKN45 Cell Prolif. 120 hr (Ymin-Obs)” value is given as 6.92.
On to `Cc1ccc2cc(CN3CC[C@H](Oc4ccc5c(c4)CN(C4CCC(=O)NC4=O)C5=O)C3)cc(C)c2n1` (stereo partly drawn) [3-(5-{[(3S)-1-[(2,8-dimethylquinolin-6-yl)methyl]pyrrolidin-3-yl]oxy}-1-oxo-2,3-dihydro-1H-isoindol-2-yl)piperidine-2,6-dione], for which, in assay [1], the “293T-LentiX WEE1-ePL Degradation 4 hr (Ymin)” value is on record as 29.33 and the DC50 is 6.44 nM. Moreover, in assay [2], the pEC50 is 7.26 and the “MKN45 Cell Prolif. 120 hr (Ymin-Obs)” value is 13.61.
For the compound `O=C1CCC(N2Cc3cc(O[C@H]4CCN(Cc5ccc6nc(Cl)ccc6c5)C4)ccc3C2=O)C(=O)N1` (stereo partly drawn) [3-(5-{[(3S)-1-[(2-chloroquinolin-6-yl)methyl]pyrrolidin-3-yl]oxy}-1-oxo-2,3-dihydro-1H-isoindol-2-yl)piperidine-2,6-dione], in assay [1], the “293T-LentiX WEE1-ePL Degradation 4 hr (Ymin)” value came to 29.2 and the DC50 turned out to be 2.82 nM. Also, in assay [2], the negative logarithm of the EC50 (pEC50) was 8.02 and the “MKN45 Cell Prolif. 120 hr (Ymin-Obs)” value amounted to 12.57.
On to `O=C1CCC(N2Cc3cc(O[C@H]4CCN(Cc5ccc6nc(C7CC7)ccc6c5)C4)ccc3C2=O)C(=O)N1` (stereo partly drawn) [3-(5-{[(3S)-1-[(2-cyclopropylquinolin-6-yl)methyl]pyrrolidin-3-yl]oxy}-1-oxo-2,3-dihydro-1H-isoindol-2-yl)piperidine-2,6-dione], for which, in assay [1], the “293T-LentiX WEE1-ePL Degradation 4 hr (Ymin)” value is given as 34.33 and the DC50 came to 2.21 nM. For the same compound, in assay [2], the pEC50 was 8.22 and the “MKN45 Cell Prolif. 120 hr (Ymin-Obs)” value came out at 12.12.
Take `CCc1ccc2cc(CN3CC[C@H](Oc4ccc5c(c4)CN(C4CCC(=O)NC4=O)C5=O)C3)ccc2n1` (stereo partly drawn) [3-(5-{[(3S)-1-[(2-ethylquinolin-6-yl)methyl]pyrrolidin-3-yl]oxy}-1-oxo-2,3-dihydro-1H-isoindol-2-yl)piperidine-2,6-dione]: in assay [1], the “293T-LentiX WEE1-ePL Degradation 4 hr (Ymin)” value turned out to be 27 and the DC50 came out at 3.02 nM. Also, in assay [2], the pEC50 is 7.60 and the “MKN45 Cell Prolif. 120 hr (Ymin-Obs)” value is reported as 12.49.
With `C#Cc1ncc2cc(CN3CC[C@H](Oc4ccc5c(c4)CN(C4CCC(=O)NC4=O)C5=O)C3)ccc2n1` (stereo partly drawn) [3-(5-{[(3S)-1-[(2-ethynylquinazolin-6-yl)methyl]pyrrolidin-3-yl]oxy}-1-oxo-2,3-dihydro-1H-isoindol-2-yl)piperidine-2,6-dione], in assay [1], the “293T-LentiX WEE1-ePL Degradation 4 hr (Ymin)” value was found to be 45 and the DC50 was found to be 16.5 nM. Also, in assay [2], the pEC50 is 7.15 and the “MKN45 Cell Prolif. 120 hr (Ymin-Obs)” value was found to be 28.856.
On the same counts, the results for `C#Cc1ccc2cc(CN3CC[C@H](Oc4ccc5c(c4)CN(C4CCC(=O)NC4=O)C5=O)C3)ccc2n1` (stereo partly drawn) [3-(5-{[(3S)-1-[(2-ethynylquinolin-6-yl)methyl]pyrrolidin-3-yl]oxy}-1-oxo-2,3-dihydro-1H-isoindol-2-yl)piperidine-2,6-dione] are 32, 3.14 nM, 6.59 and 6.523.
For the compound `COc1ncc2cc(CN3CC[C@H](Oc4ccc5c(c4)CN(C4CCC(=O)NC4=O)C5=O)C3)ccc2n1` (stereo partly drawn) [3-(5-{[(3S)-1-[(2-methoxyquinazolin-6-yl)methyl]pyrrolidin-3-yl]oxy}-1-oxo-2,3-dihydro-1H-isoindol-2-yl)piperidine-2,6-dione], in assay [1], the “293T-LentiX WEE1-ePL Degradation 4 hr (Ymin)” value worked out at 37 and the DC50 came to 8.05 nM. In addition, in assay [2], the pEC50 was 7.65 and the “MKN45 Cell Prolif. 120 hr (Ymin-Obs)” value was 8.47.
In the case of `COc1ccc2cc(CN3CC[C@H](Oc4ccc5c(c4)CN(C4CCC(=O)NC4=O)C5=O)C3)ccc2n1` (stereo partly drawn) [3-(5-{[(3S)-1-[(2-methoxyquinolin-6-yl)methyl]pyrrolidin-3-yl]oxy}-1-oxo-2,3-dihydro-1H-isoindol-2-yl)piperidine-2,6-dione], in assay [1], the “293T-LentiX WEE1-ePL Degradation 4 hr (Ymin)” value is given as 36 and the DC50 was 6.24 nM. Besides, in assay [2], the pEC50 is 7.34 and the “MKN45 Cell Prolif. 120 hr (Ymin-Obs)” value was 19.71.
On to `Cn1cc2cc(CN3CC[C@H](Oc4ccc5c(c4)CN(C4CCC(=O)NC4=O)C5=O)C3)ccc2n1` (stereo partly drawn) [3-(5-{[(3S)-1-[(2-methyl-2H-indazol-5-yl)methyl]pyrrolidin-3-yl]oxy}-1-oxo-2,3-dihydro-1H-isoindol-2-yl)piperidine-2,6-dione], for which, in assay [1], the “293T-LentiX WEE1-ePL Degradation 4 hr (Ymin)” value amounted to 52 and the DC50 was 40.5 nM. In assay [2], the pEC50 is under 5.00 and the “MKN45 Cell Prolif. 120 hr (Ymin-Obs)” value came to 81.985.
For the compound `Cc1cc(CN2CC[C@H](Oc3ccc4c(c3)CN(C3CCC(=O)NC3=O)C4=O)C2)ccn1` (stereo partly drawn) [3-(5-{[(3S)-1-[(2-methylpyridin-4-yl)methyl]pyrrolidin-3-yl]oxy}-1-oxo-2,3-dihydro-1H-isoindol-2-yl)piperidine-2,6-dione], in assay [1], the “293T-LentiX WEE1-ePL Degradation 4 hr (Ymin)” value is recorded as 39.18 and the DC50 is 39.5 nM. In assay [2], the negative logarithm of the EC50 (pEC50) was 6.18 and the “MKN45 Cell Prolif. 120 hr (Ymin-Obs)” value is reported as 37.845.
The corresponding values for `Cc1ncc2cc(CN3CC[C@H](Oc4ccc5c(c4)CN(C4CCC(=O)NC4=O)C5=O)C3)ccc2n1` (stereo partly drawn) [3-(5-{[(3S)-1-[(2-methylquinazolin-6-yl)methyl]pyrrolidin-3-yl]oxy}-1-oxo-2,3-dihydro-1H-isoindol-2-yl)piperidine-2,6-dione] are 34.5, 29.6 nM, 7.57 and 7.995.
The corresponding values for `Cc1ncc2ccc(CN3CC[C@H](Oc4ccc5c(c4)CN(C4CCC(=O)NC4=O)C5=O)C3)cc2n1` (stereo partly drawn) [3-(5-{[(3S)-1-[(2-methylquinazolin-7-yl)methyl]pyrrolidin-3-yl]oxy}-1-oxo-2,3-dihydro-1H-isoindol-2-yl)piperidine-2,6-dione] are 35.02, 65.5 nM, 6.44 and 32.41.
Take `Cc1nc2ccccc2cc1CN1CC[C@H](Oc2ccc3c(c2)CN(C2CCC(=O)NC2=O)C3=O)C1` (stereo partly drawn) [3-(5-{[(3S)-1-[(2-methylquinolin-3-yl)methyl]pyrrolidin-3-yl]oxy}-1-oxo-2,3-dihydro-1H-isoindol-2-yl)piperidine-2,6-dione]: in assay [1], the “293T-LentiX WEE1-ePL Degradation 4 hr (Ymin)” value is recorded as 34.08 and the DC50 was 8.04 nM. Also, in assay [2], the pEC50 was 7.46 and the “MKN45 Cell Prolif. 120 hr (Ymin-Obs)” value turned out to be 11.29.
Consider `Cc1ccc2cc(CN3CC[C@H](Oc4ccc5c(c4)CN(C4CCC(=O)NC4=O)C5=O)C3)ccc2n1` (stereo partly drawn) [3-(5-{[(3S)-1-[(2-methylquinolin-6-yl)methyl]pyrrolidin-3-yl]oxy}-1-oxo-2,3-dihydro-1H-isoindol-2-yl)piperidine-2,6-dione], for which, in assay [1], the “293T-LentiX WEE1-ePL Degradation 4 hr (Ymin)” value came out at 30.3 and the DC50 was 3.81 nM. In addition, in assay [2], the pEC50 is 7.65 and the “MKN45 Cell Prolif. 120 hr (Ymin-Obs)” value was 13.85.
As to `CC(C)(C)c1ccc2cc(CN3CC[C@H](Oc4ccc5c(c4)CN(C4CCC(=O)NC4=O)C5=O)C3)ccc2n1` (stereo partly drawn) [3-(5-{[(3S)-1-[(2-tert-butylquinolin-6-yl)methyl]pyrrolidin-3-yl]oxy}-1-oxo-2,3-dihydro-1H-isoindol-2-yl)piperidine-2,6-dione], in assay [1], the “293T-LentiX WEE1-ePL Degradation 4 hr (Ymin)” value was 29 and the DC50 stood at 2.8 nM. Also, in assay [2], the pEC50 is 8.04 and the “MKN45 Cell Prolif. 120 hr (Ymin-Obs)” value is recorded as 11.88.
For `O=C1CCC(N2Cc3cc(O[C@H]4CCN(Cc5ccc6nc(N7CC8(COC8)C7)ncc6c5)C4)ccc3C2=O)C(=O)N1` (stereo partly drawn) [3-(5-{[(3S)-1-[(2-{2-oxa-6-azaspiro[3.3]heptan-6-yl}quinazolin-6-yl)methyl]pyrrolidin-3-yl]oxy}-1-oxo-2,3-dihydro-1H-isoindol-2-yl)piperidine-2,6-dione], in assay [1], the “293T-LentiX WEE1-ePL Degradation 4 hr (Ymin)” value is 37 and the DC50 came out at 35.5 nM. Also, in assay [2], the negative logarithm of the EC50 (pEC50) was 7.66 and the “MKN45 Cell Prolif. 120 hr (Ymin-Obs)” value was 15.5.

For orientation: pEC50 means −log10 of the EC50, conventionally taken in molar units.
